Laboratory results as given in ChEMBL document CHEMBL1158305, “Bastadin 20 and bastadin O-sulfate esters from Ianthella basta: novel modulators of the Ry1R FKBP12 receptor complex” (J Nat Prod, 1996).

Target: Ryanodine receptor 1 (Oryctolagus cuniculus, UniProt P11716)
Assay: Displacement of [3H]ryanodine from Ry1R/FKBP12 receptor complex in rabbit sarcoplasmic reticulum

Ryanodine receptor 1, sequence (P11716 whole entry): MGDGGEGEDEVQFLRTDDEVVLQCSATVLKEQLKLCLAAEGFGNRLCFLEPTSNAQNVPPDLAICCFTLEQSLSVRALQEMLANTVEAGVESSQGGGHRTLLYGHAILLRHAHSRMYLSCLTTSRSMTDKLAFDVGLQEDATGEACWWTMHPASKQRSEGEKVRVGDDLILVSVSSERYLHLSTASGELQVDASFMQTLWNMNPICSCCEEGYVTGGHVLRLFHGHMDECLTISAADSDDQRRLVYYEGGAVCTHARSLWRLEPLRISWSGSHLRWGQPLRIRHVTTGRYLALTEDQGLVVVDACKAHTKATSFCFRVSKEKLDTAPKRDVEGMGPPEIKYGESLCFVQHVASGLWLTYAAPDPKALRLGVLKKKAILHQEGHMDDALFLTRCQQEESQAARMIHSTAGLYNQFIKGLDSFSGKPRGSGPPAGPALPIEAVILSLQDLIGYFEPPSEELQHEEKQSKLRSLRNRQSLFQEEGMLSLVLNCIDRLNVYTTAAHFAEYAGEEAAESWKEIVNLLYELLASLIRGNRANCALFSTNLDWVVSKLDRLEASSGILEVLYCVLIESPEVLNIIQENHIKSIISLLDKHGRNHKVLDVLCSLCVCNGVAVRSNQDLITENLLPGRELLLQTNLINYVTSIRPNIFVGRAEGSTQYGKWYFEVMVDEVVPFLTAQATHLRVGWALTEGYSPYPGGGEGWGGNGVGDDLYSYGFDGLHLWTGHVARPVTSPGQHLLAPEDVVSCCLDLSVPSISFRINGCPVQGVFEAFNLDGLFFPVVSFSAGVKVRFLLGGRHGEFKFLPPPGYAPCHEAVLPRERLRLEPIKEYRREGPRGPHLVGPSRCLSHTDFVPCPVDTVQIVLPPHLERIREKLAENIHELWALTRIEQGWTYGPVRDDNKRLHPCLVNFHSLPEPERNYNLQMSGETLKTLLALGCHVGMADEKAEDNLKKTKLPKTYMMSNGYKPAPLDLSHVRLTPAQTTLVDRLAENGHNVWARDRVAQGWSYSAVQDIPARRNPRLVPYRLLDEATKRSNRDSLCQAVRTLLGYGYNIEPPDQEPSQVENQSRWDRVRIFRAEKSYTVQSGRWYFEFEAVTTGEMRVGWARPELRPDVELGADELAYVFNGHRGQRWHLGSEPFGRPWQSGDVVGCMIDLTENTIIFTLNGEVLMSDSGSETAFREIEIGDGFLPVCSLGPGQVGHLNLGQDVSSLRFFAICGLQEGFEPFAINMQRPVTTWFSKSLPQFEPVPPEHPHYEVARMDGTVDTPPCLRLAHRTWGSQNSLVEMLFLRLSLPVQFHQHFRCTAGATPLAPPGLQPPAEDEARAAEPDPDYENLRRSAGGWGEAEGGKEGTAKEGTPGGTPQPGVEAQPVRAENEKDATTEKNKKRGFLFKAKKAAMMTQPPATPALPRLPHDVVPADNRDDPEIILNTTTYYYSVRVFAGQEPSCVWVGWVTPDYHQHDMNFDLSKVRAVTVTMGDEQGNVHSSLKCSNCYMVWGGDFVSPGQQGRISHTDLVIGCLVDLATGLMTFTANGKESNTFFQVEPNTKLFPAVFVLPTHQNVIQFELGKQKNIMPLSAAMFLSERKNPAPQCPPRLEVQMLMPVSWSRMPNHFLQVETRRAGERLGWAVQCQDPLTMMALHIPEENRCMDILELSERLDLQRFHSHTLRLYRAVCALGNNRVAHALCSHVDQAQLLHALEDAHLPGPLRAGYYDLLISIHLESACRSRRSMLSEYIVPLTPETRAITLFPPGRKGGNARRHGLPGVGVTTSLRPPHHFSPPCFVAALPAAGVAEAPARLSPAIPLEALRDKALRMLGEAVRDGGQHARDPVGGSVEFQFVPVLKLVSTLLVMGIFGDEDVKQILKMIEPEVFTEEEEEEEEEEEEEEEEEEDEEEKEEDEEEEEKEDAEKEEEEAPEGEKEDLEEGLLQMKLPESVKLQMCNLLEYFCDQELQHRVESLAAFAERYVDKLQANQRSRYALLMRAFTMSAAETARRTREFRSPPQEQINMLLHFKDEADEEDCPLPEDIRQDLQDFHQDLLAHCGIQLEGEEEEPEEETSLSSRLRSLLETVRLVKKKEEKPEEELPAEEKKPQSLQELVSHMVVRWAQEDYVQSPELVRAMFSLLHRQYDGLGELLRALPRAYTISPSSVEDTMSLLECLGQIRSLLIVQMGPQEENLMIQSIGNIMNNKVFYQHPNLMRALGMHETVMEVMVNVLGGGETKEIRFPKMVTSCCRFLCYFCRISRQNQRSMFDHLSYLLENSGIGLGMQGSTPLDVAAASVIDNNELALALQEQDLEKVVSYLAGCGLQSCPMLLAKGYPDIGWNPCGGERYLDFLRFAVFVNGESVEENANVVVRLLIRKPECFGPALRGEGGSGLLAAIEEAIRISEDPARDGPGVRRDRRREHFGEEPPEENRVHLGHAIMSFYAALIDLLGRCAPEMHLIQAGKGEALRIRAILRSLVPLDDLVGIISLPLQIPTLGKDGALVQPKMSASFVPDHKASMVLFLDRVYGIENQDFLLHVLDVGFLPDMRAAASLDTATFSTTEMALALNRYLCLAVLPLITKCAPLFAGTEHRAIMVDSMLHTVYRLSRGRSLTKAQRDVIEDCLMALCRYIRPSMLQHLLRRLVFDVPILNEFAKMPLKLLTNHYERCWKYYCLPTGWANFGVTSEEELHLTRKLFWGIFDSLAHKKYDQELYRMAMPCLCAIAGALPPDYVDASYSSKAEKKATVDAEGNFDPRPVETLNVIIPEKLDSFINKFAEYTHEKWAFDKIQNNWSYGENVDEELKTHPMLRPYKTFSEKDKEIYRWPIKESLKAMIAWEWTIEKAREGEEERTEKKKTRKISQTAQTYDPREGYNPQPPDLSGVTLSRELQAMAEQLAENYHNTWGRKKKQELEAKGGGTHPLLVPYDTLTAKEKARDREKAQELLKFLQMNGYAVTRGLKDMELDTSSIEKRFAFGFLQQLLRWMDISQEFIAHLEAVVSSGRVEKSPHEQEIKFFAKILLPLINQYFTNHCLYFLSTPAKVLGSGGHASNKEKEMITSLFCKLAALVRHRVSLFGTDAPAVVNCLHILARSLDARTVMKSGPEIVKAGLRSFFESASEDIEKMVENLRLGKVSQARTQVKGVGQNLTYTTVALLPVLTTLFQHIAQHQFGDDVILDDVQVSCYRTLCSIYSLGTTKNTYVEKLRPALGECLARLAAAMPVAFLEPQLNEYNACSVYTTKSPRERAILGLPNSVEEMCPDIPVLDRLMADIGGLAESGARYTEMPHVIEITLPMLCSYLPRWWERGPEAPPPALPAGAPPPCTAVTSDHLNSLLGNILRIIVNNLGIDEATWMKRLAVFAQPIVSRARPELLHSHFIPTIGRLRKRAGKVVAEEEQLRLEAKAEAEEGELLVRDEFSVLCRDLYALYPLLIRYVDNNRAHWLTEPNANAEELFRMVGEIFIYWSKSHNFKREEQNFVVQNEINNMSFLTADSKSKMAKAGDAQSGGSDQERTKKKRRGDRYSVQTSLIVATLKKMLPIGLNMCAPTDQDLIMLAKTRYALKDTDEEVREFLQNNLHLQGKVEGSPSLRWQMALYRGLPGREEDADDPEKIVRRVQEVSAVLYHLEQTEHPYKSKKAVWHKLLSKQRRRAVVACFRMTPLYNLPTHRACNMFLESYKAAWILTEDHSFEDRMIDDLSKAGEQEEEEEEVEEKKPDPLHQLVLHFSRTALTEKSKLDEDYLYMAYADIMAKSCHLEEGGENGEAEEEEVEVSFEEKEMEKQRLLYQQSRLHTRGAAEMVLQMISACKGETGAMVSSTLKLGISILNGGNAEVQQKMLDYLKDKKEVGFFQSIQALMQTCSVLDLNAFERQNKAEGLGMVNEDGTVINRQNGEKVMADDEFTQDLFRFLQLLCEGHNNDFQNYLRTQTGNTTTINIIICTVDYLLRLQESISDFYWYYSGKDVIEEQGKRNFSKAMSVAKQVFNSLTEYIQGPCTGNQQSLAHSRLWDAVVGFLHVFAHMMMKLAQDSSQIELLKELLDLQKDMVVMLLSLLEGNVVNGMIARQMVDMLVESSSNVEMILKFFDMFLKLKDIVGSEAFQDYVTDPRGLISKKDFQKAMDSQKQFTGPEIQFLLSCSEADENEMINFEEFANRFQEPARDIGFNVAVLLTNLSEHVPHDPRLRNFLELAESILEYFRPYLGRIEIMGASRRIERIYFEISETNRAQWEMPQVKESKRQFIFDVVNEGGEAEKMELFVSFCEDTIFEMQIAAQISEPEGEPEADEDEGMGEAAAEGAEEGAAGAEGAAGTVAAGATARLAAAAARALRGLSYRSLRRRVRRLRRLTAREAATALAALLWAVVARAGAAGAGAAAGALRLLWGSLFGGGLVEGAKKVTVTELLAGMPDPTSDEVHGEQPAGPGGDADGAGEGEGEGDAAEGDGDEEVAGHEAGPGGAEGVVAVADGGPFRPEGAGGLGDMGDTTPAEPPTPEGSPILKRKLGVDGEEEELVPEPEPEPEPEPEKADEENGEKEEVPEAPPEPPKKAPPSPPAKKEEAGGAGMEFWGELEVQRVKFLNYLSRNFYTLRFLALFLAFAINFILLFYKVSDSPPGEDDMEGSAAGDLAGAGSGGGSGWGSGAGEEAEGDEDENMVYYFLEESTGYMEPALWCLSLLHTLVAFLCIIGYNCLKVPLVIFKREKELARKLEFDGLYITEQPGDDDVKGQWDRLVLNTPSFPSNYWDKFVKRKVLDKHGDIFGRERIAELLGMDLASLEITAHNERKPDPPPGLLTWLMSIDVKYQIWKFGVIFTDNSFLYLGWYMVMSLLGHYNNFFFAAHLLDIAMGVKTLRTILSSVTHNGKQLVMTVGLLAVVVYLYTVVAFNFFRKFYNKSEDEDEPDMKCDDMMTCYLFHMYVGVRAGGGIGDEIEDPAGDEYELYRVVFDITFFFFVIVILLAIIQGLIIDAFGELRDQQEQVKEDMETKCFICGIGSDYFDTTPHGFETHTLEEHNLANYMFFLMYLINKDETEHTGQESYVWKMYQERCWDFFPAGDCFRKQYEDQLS

EC50	SMILES
13.6 µM	O=C1N/C=C/c2ccc(c(Br)c2)Oc2cc(cc(Br)c2OS(=O)(=O)O)CCNC(=O)/C(=N/O)Cc2ccc(c(Br)c2)Oc2cc(cc(Br)c2OS(=O)(=O)O)C/C1=N\O
> 100 µM	O=C1NCCc2ccc(c(Br)c2)Oc2cc(cc(Br)c2O)CCNC(=O)/C(=N/O)Cc2cc(Br)c(O)c(c2)Oc2c(Br)cc(cc2Br)C/C1=N\O [BASTADIN 19]
